Experimental data reported in patent publication US8183264B2, “Pyridine derivative substituted by heteroaryl ring, and antifungal agent comprising the same” (Eisai R&D Managment Co., Ltd., priority 2006, dated 2012).
Converted amounts (≈) assume the structure as drawn.

What was measured:
[1] = tested on: C. albicans E81022 strain; test: Experimental systemic candidal infection model in mice; assay type: in vivo; details: peroral, 3 times every 4 hours, female ICR mice infected iv with C. albicans E81022, observed until 14 days after infection
Experimental: 2. Experimental Systemic Candidal Infection Model in Mice (1) Preparation of Fungal Inoculant
A standing culture of C. albicans E81022 strain was carried out for 48 hours at 30° C. in Sabouraud dextrose agar medium (SDA), and the recovered fungal cells were suspended in sterilized physiological saline. By counting the fungal number on cytometry plate, the suspension was diluted to 2×10^7 cells/mL with sterilized physiological saline to serve fungal inoculum.
The fungal inoculum was used in amounts of 0.2 mL to inoculate 4.5 to 5.5 week-old female ICR mice in the tail vein (4×10^6 cells/mouse).
From 0.5 to 1 hour after fungal inoculation, 0.2 mL of agent solution (dissolved or suspended in sterilized physiological saline containing 6.5% dimethyl sulfoxide and 3.5% Tween 80) was administered into the stomach using a peroral probe, 3 times every 4 hours. The agent concentration was 2.5 or 10 mg/kg, and the number of animal in one group was five animals.
(4) Determination of Effects
The protective effect was determined by observing life/death until 14 days after infection and calculating the mean survival days.

[2] = tested on: C. albicans CAF2-1 strain; test: Anti-Candida activity (MIC measurement); assay type: cell-based; details: CAF21STRAIN, minimum inhibitory concentration (MIC) by visual inspection, RPMI 1640, 42 to 48 hours at 35° C.
Experimental: (§1) 1. Anti-Candida Activity and Anti-Aspergillus Activity
(§2) (1) Preparation of Fungal Sample
(§3) For the C. albicans CAF2-1 strain, a fungal suspension from a standing culture for 48 hours at 30° C. in a Sabouraud dextrose liquid culture medium (SDB) was diluted with RPMI 1640 medium to adjust a fungal suspension of 1.2×10^3 cells/mL. For the A. fumigatus Tsukuba strain, −80° C. stored strain was diluted with RPMI 1640 medium to adjust to a fungal suspension of 4.5×10^3 cells/mL.
(§4) (2) Preparation of an Agent Dilution Plate
(§5) Using a U-bottomed 96-well plate, 8 samples/plate (A to H) of sample dilution solutions were prepared. On the 2nd to 12th rows were dispensed 10 μL of dimethyl sulfoxide solution. Weighed sample was dissolved in dimethyl sulfoxide to prepare a 2.5 mg/mL solution, 20 μL of this solution was added to the first row of the prepared plate, and 12 steps of two-fold step dilutions (10 μL of solution+10 μL of dimethyl sulfoxide solution) were performed on the plate. This sample dilution solution was dispensed in an amount of 1 μL into a flat-bottomed 96-well plate for MIC measurement to prepare a sample dilution plate.
(§6) (3) Inoculation of Fungal Suspension and Culture
(§7) The fungal suspension prepared in (1) was used in an amount of 99 μL/well to inoculate the flat-bottomed 96-well plate containing 1 μL/well of the test compound dilution prepared in (2), and standing culture was performed aerobically for 42 to 48 hours at 35° C.
(§8) The following representative compounds prepared in the examples were measured for anti-Candida activity and anti-Aspergillus activity by measurement method in (1).

[3] = tested on: A. fumigatus Tsukuba strain; test: Anti-Aspergillus activity (MIC measurement); assay type: cell-based; details: minimum inhibitory concentration (MIC) by visual inspection, RPMI 1640, 42 to 48 hours at 35° C.
Experimental: as §1, §2, §3, §4, §5, §6, §7, §8

Structure (SMILES) | Mean Survival Day (MSD) ([1]; Dose 2.5 mg/kg) [days] | Mean Survival Day (MSD) ([1]; Dose 10 mg/kg) [days] | MIC [2] [µg/mL] | MIC [3] [µg/mL]
CCCCOCc1ccc(Cn2cc(-c3ccc(COC)nc3N)nn2)cc1 [Example 41, 3-[1-(4-Butoxymethyl-benzyl)-1H-[1,2,3]triazol-4-yl]-6-methoxymethyl-pyridin-2-ylamine] | 6.2 | 11.2 | 0.39 (≈ 1.02 µM) | 1.56 (≈ 4.09 µM)
Nc1ncccc1-c1nnn(Cc2ccc(OCc3ccccc3)cc2)n1 [Example 5, 3-(2-(4-Benzyloxy-benzyl)-2H-tetrazol-5-yl)-pyridin-2-ylamine] |  | 11.8 | 0.78 (≈ 2.18 µM) | 1.56 (≈ 4.35 µM)
Nc1ccc(-c2nnn(Cc3ccc(OCc4ccccn4)cc3)n2)c(N)n1 [Example 27, 3-(2-(4-(Pyridin-2-ylmethoxy)-benzyl)-2H-tetrazol-5-yl)-pyridin-2,6-diamine] | 5.6 | 12 | 0.2 (≈ 0.534 µM) | 0.78 (≈ 2.08 µM)
Nc1ncccc1-c1nnc(Cc2ccc(OCc3ccccc3)cc2)o1 [Example 9] | 7.8 | 10.8 | 0.39 (≈ 1.09 µM) | 0.78 (≈ 2.18 µM)
CCCCOCc1ccc(Cn2cc(-c3ccc(N)nc3N)nn2)cc1 [Example 42, 3-(1-(4-Butoxymethyl-benzyl)-1H-[1,2,3]triazol-4-yl)-pyridin-2,6-diamine] |  | 13.6 | 0.2 (≈ 0.567 µM) | 0.78 (≈ 2.21 µM)
Cc1ccc(Cc2ccc(Cn3nnc(-c4cccnc4N)n3)cc2)o1 [Example 53, 3-(2-(4-(5-Methyl-furan-2-ylmethyl)-benzyl)-2H-tetrazol-5-yl)-pyridin-2-ylamine] | 7.6 | 13.8 | 0.39 (≈ 1.13 µM) | 0.78 (≈ 2.25 µM)
CCOc1ccc(Cn2nnc(-c3cccnc3N)n2)cc1 [Example 50, 3-(2-(4-Ethoxy-benzyl)-2H-tetrazol-5-yl)-pyridin-2-ylamine] |  |  | 6.25 (≈ 21.1 µM) | > 25
Nc1ccc(-c2nnn(Cc3ccc(OCc4ccccc4)cn3)n2)c(N)n1 [Example 40, 3-(2-(5-Benzyloxy-pyridin-2-ylmethyl)-2H-tetrazol-5-yl)-pyridin-2,6-diamine] |  |  | 1.56 (≈ 4.17 µM) | > 25
Nc1ncccc1-c1cn(Cc2ccc(Cc3ccc(Cl)o3)cc2)nn1 [Example 16, 3-(1-(4-(5-Chloro-furan-2-ylmethyl)-benzene)-1H-[1,2,3]triazol-4-yl)-pyridin-2-ylamine] |  |  | 0.05 (≈ 0.137 µM) | 0.78 (≈ 2.13 µM)
